According to patent US5476847A, “Derivatives of phosphinic acid useful as endothelin converting enzyme inhibitors” (priority 1994, dated 1995):
Structures can show the parent of a compound that is named as a salt. Ends that are not written are not given here.

Key:
[1] = test system: I/H-induced ET-1 release in isolated perfused guinea pig lungs; assay: Isolated Perfused Guinea Pig Lung Method (ischemia/hypoxia, I/H); assay type: in vivo; conditions: for elevation in PIP produced by I/H (FIG. 4): subcutaneous
Procedure: The method is as described by Vemulapalli et al., in J. PharmacoL Exp. Therap., 262, 3 (1992), pp. 1062-1069. Briefly, male Dunkin-Hartley guinea pigs (400-600 g) are anesthetized with pentobarbital 30 mg/kg, ip. The trachea is cannulated to facilitate respiration. The right jugular vein is cannulated to administer saline vehicle or test compound, or compounds are administered orally or subcutaneously. Ten minutes after the administration of saline vehicle or test compound, a thoracotomy is performed and the trachea, lungs and heart are removed intact and placed in warmed Tyrode's buffer (34°-35° C.) of the following composition in mM: NaCl 120, KCl 4.8, MgSO4.7H2 O 1.2, KH2 PO4 1.2, NaHCO3 25, CaCl2.2H2 O […], glucose 11 and BSA 0.5%. The pulmonary artery and trachea are cannulated and the lungs are mounted on a perfusion apparatus. Lungs are perfused at a rate of 3.2 ml/min via the pulmonary artery with oxygenated (95% O 2 and 5% CO2) Tyrode's solution maintained at 34°-35° C. The lungs are mechanically ventilated with room air with a volume of 2.5 ml/stroke and 50 strokes/min. Pulmonary insufflation pressure (PIP) is monitored through a side arm of the perfusion apparatus with a Statham pressure transducer and recorded on a Grass polygraph. Lungs are allowed to stabilize for 15 min. Lung effluents (50 ml) are collected every 15 min into chilled polypropylene centrifuge tubes (Corning) containing 100 μl each of aprotinin (200 kallikrein inhibitory units/ml) and soybean trypsin inhibitor (20N-α-benzoyl-L-arginine ethyl ester units/ml). Ischemia-hypoxia (I/H) is produced by cessation of ventilation and perfusion for 15 min followed by reperfusion and reventilation for 60 min. At the end of the experiment, the lungs are tested for cardiopulmonary reactivity by challenging with 5-hydroxy-tryptamine (0.5 mg) directly into the lungs via a pulmonary artery cannula.
In a separate study, anesthetized guinea pigs are administered saline vehicle or test compound. Ten minutes later, the lungs are removed and mounted on a perfusion apparatus as described above. After an equilibration period of 15 min, BET-1 (30 μg over 15 min) or ET-1 (0.6 μg over 15 min) is infused directly into the perfusion medium and the effects on PIP in vehicle and test compound-treated guinea pig lungs are assessed.
FIGS. 3 to 6 show the results of four compounds of the invention on I/H-induced ET-1 release in isolated perfused guinea pig lungs. The compounds include Compounds A and B, identified above, and: […]

ECE = assay: BET Challenge Method (pressor response to BET-1 in anesthetized rats); conditions: BET-1 5 μg/kg
Procedure: ECE in vivo activity is determined as described by Vemulapalli et al.,in Life Sciences, 53 (1993), pp. 783-793. Briefly, male Charles River CD rats (Wilmington, Mass.) weighing 250-275 g are anesthetized with Inactin, 100 mg/kg, ip. The trachea is catheterized. The right carotid artery and the right jugular vein are cannulated to record blood pressure (BP) and to infuse drugs, respectively. […] The rectal temperature is kept at 37° C. After an equilibration period of 15-30 min, the rats are infused with saline vehicle (20 μl/min) or test compounds (0.01-0.25 mg/kg/min) throughout the study. Thirty minutes after the start of infusion, the rats are challenged with BET-1 (5 μg/kg) via the venous catheter, and the BP is monitored for another 15 min.

[2] = S. Bertenshaw, et al, J. Med. Chem., 36(1993); cited from earlier work

Molecule: CC(C)CC(CP(=O)(O)C(Cc1ccc2ccccc2c1)NC(=O)[C@H](CCCCNC(=O)OCc1ccccc1)NS(C)(=O)=O)C(=O)N[C@@H](Cc1c[nH]c2ccccc12)C(=O)O (stereo partly drawn) [Compound B, N-[2-[[hydroxy[1-[[2(S)-[(methylsulfonyl)amino]-1-oxo-6-[[phenylmethoxy)-carbonyl]amino]hexyl]amino]-2-(2-naphthalenyl)ethyl]phosphinyl]methyl]-4-methyl-1-oxopentyl]-L-tryptophan disodium salt]
- elevation in PIP produced by I/H (FIG. 4) ([1]; 3 mg/kg, 1 hour): attenuated
- elevation in PIP produced by I/H (FIG. 4) ([1]; 10 mg/kg, 6 hours): attenuated
- elevation in PIP produced by I/H (FIG. 4) ([1]; 30 mg/kg, 6 hours): attenuated
- effect on blood pressure response to BET-1 challenge, compared to vehicle (FIG. 2) (ECE; 0.1 mg/kg/min infusion, result in words): does not have an effect
- lower blood pressure in response to the BET-1 challenge, compared to vehicle (FIG. 2) (ECE; 0.3 mg/kg/min infusion): ~22 mmHg

Molecule: CC(C)C(CP(=O)(O)C(Cc1ccccc1)NC(=O)C(CCCCN)NS(C)(=O)=O)C(=O)N[C@@H](Cc1c[nH]c2ccccc12)C(=O)O (stereo partly drawn) [Compound C]
- elevation in PIP produced by I/H (FIG. 5) ([1]; iv, 10 mg/kg): attenuated

Molecule: CC(C)CC(CP(=O)(O)C(Cc1ccccc1)NC(=O)C(CC(C)C)NC(=O)OCc1ccccc1)C(=O)NC(Cc1c[nH]c2ccccc12)C(=O)O (stereo not drawn) [Compound D, N-[2-[[hydroxy[2-[1-[4-methyl-1-oxo-2-[[(phenylmethoxy)carbonyl]amino]pentyl]amino]-2-phenylethyl]phosphinyl]methyl]-4-methyl-1-oxopentyl]-tryptophan]
- ET-1 release following I/H (FIG. 6) ([1]; iv, 10 mg/kg): attenuation

Molecule: CS(=O)(=O)N[C@@H](CCCCN)C(=O)N[C@@H](Cc1ccccc1)P(=O)(O)CC1(C(=O)N[C@@H](Cc2c[nH]c3ccccc23)C(=O)[O-])CCCC1.[Li+] [Example 5, N-[[1-[[hydroxy-[1(R)-[[6-amino-2(S)-[(methylsulfonyl)amino]-1-oxohexyl]-amino]-2-phenylethyl]phosphinyl]methyl]cyclopentyl]carbonyl]-L-tryptophan lithium salt]
- lower blood pressure in response to the BET-1 challenge, compared to vehicle (FIG. 1) (ECE; 0.1 mg/kg/min infusion): ~15 mmHg

Molecule: ET-1: endothelin-1, peptide with potent vasoconstrictive and mitogenic activity (CSCSSLMDKECVYFCHLDIIW; ends and bridges not checked; cysteine pairing not given here; UniProt P05305 53-73, looked up)
- times more potent than its precursor big-endothelin-1 (BET-1) [2]: approximately 100 times
